Results reported in PMC2902375 (Neuroreport, 2009).

Biological target: CACNA1H (Homo sapiens, UniProt O95180)
Test: whole-cell voltage clamp, HEK-293
Type: cell-based

Sequence of CACNA1H (O95180 whole entry): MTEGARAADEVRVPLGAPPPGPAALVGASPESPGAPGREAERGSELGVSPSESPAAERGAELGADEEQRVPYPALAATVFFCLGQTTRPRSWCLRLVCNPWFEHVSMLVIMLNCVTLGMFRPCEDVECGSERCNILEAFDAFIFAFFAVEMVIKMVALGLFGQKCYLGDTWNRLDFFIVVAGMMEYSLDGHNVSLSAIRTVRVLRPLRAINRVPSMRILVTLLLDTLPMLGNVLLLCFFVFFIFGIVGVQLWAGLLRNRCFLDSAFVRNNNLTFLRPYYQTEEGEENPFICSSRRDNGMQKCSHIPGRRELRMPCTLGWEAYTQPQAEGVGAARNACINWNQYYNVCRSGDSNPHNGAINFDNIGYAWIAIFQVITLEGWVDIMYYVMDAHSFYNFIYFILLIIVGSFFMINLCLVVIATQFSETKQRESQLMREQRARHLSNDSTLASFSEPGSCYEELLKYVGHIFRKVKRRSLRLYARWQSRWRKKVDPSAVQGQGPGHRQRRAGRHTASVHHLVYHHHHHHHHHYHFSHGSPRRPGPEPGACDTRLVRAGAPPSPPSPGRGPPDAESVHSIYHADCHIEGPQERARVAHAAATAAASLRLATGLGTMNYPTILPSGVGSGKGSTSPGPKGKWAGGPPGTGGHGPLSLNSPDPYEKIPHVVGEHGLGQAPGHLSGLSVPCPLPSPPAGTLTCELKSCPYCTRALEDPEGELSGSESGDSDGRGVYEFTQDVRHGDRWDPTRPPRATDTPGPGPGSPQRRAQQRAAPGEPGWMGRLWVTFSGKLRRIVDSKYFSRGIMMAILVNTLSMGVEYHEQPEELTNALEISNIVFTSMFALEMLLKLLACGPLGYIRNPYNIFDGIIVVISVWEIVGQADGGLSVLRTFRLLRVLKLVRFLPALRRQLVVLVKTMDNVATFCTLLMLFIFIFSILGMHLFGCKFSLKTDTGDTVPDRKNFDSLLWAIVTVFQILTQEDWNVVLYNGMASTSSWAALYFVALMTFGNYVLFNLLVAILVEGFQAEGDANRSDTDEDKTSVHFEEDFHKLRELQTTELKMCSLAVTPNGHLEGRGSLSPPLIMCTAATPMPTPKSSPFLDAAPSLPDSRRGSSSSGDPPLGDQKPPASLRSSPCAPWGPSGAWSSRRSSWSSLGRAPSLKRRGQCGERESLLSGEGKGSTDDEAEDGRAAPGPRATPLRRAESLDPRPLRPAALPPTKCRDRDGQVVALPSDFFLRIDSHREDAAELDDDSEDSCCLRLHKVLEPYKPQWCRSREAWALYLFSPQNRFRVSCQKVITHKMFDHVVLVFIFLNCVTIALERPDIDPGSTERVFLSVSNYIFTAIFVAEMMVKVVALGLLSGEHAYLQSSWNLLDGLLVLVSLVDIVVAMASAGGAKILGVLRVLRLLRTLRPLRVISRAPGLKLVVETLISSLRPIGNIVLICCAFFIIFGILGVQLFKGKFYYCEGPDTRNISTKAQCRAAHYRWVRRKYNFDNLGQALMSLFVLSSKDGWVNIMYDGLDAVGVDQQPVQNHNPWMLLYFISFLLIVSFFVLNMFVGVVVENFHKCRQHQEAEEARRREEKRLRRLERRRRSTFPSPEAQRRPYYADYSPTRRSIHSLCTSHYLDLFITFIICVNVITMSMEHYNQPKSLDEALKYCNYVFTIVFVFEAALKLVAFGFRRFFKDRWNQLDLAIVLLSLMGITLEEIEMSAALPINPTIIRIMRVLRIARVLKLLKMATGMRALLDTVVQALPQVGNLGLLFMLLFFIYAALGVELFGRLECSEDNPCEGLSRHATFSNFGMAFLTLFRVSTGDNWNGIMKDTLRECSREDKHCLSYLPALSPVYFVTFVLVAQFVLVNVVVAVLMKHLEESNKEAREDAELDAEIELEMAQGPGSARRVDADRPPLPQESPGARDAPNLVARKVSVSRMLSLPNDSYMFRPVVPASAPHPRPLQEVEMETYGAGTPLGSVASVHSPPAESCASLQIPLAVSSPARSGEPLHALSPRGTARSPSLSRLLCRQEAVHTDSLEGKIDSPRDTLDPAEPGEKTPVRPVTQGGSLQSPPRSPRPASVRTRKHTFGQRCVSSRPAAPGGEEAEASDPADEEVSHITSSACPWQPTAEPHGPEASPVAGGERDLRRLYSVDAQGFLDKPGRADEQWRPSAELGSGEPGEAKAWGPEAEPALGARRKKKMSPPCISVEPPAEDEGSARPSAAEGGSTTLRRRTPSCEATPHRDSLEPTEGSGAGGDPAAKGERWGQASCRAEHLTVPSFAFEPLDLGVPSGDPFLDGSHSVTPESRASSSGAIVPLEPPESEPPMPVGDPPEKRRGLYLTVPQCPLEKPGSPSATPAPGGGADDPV

Fc1ccc(CN(CC(F)(F)F)C2CCN(CCCc3c[nH]c4ccc(Cn5cncn5)cc34)CC2)cc1 [TTA-I1, N-(4-fluorobenzyl)-1-{3-[5-(1H-1,2,4-triazol-1-ylmethyl)-1H-indol-3-yl]propyl}-N-(2,2,2-trifluoroethyl)piperidin-4-amine]
IC50: 3 nM
